Measurements published in patent US7579356B2, “Thia-tetraazaacenaphthylene kinase inhibitors” (Janssen Pharmaceutica NV, priority 2005, dated 2009).

Assays:
Type in all cases: biochemical
EGFR = target: T1, EGFR (Homo sapiens, UniProt P00533); test: EGFR Kinase Assay; conditions: for inhibition at 2 µM: test concentration of 2 μM, compounds without an IC50, read-out: EGFR inhibition in percent; for IC50: GST-EGFR, ATP 5 μM
T1 construct: The intracellular portion of EGFR started at nucleotide 2189 (corresponding to amino acid 667) and ended at the termination codon; made in house; host or cells: Sf9 insect cells (baculovirus)
T1 sequence (P00533 669-1210 limits assumed): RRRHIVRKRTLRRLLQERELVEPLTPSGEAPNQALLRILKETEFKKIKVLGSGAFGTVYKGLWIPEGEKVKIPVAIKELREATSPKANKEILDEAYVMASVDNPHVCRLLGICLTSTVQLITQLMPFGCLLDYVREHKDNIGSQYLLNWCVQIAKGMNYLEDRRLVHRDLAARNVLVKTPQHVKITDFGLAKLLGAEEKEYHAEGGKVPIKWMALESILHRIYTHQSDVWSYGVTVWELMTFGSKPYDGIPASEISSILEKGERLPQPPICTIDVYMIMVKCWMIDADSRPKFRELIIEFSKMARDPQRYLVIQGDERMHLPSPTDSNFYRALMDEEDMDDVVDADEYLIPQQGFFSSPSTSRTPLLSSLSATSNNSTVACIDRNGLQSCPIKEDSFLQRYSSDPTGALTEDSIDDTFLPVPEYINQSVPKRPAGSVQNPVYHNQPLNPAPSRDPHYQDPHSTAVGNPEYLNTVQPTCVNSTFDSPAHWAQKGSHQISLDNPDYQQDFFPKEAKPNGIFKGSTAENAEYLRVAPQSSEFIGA
Method in brief: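 GST-fused human EGFR intracellular domain (from aa 667), Sf9-expressed, phosphorylated biotinylated polyGluTyr with 5 μM ATP plus γ-33P ATP in Tris pH 8.0, MgCl2, vanadate, 1 mM DTT, 1 h at 30 °C. Streptavidin Flashplate scintillation read; triplicate 16-point half-log series from 200 uM; IC50 from % inhibition vs log concentration, else % inhibition at 2 μM.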

c-Src kinase (human) = target: T2, c-Src kinase (human) (Homo sapiens, UniProt P12931); test: c-Src Kinase Assay; conditions: test concentration of 2 μM; multiple values are separate assay results
T2 construct: purchased Upstate Biotechnology, Lake Placid, N.Y
T2 sequence (P12931 whole entry): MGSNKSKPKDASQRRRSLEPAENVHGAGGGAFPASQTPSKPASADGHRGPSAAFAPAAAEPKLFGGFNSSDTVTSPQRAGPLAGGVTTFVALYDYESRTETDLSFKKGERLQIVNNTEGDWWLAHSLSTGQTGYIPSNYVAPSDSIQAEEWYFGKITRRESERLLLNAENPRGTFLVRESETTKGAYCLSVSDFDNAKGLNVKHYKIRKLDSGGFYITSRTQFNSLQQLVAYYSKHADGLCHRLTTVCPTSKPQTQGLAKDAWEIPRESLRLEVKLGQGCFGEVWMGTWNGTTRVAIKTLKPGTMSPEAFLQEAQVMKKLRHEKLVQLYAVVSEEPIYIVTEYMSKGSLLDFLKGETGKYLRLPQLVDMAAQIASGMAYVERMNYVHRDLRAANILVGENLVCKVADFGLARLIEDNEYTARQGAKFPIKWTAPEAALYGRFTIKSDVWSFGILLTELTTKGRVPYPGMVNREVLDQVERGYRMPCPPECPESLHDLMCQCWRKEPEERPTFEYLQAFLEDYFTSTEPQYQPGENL
Method: A mixture of a 10× kinase buffer (80 mM MOPS at pH 7.0, 2 mM EDTA and 100 mM Magnesium Chloride), ATP (5 μM final from a 10 mM stock), a Cdc2 peptide KVEKIGEGTYGVVYK (100 μM final from a 2.5 mM stock), γ-^33P ATP (10 μCl/μL stock) and water (for a total of 20 μL/well) was added to each well of a Streptavidin Flashplate.
Test compound in 100% DMSO (0.5 μL) was added to the appropriate wells. Diluted c-Src kinase (human) (Accession Number SWISS-PROT P12931) (Upstate Biotechnology, Lake Placid, N.Y.) (diluted in a buffer consisting of 20 mM MOPS at pH 7.0, 1 mM EDTA, β-mercaptoethanol (0.1%), Brij-35 (0.01%), glycerol (5%), and 1 mg/mL bovine serum albumin) (2.5 μL) was added to the wells to initiate the reactions. The reaction plates were incubated at 30° C. for 40 min. The reaction was terminated by the addition of a 3% phosphoric acid solution (5 μL). The reaction product (10 μL) was spotted onto a P30 filtermat and washed for 5 minutes in phosphoric acid (75 mM). The wash sequence was repeated two more times, followed with one final wash in methanol. The plates were then dried, sealed and read on the TopCount scintillation counter after adding 30 μL scintillation fluid.
The c-Src inhibition values were derived using the percent inhibition formula provided in Example 164 and are shown as percent in Table 2 at a test concentration of 2 μM. For those compounds with an IC50, the IC50 value in μM is shown in parentheses. For compounds with multiple test values, each value represents a separate assay result.

HER-2 = target: T3, HER-2 (Homo sapiens, UniProt P04626); test: HER-2 Kinase Assay; conditions: for IC50: value in parentheses; for inhibition at 1 µM: test concentration of 1 μM
T3 construct: His6 with thrombin site (N); purchased Proqinase (Freiburg, Germany)
T3 sequence (P04626 679-1255): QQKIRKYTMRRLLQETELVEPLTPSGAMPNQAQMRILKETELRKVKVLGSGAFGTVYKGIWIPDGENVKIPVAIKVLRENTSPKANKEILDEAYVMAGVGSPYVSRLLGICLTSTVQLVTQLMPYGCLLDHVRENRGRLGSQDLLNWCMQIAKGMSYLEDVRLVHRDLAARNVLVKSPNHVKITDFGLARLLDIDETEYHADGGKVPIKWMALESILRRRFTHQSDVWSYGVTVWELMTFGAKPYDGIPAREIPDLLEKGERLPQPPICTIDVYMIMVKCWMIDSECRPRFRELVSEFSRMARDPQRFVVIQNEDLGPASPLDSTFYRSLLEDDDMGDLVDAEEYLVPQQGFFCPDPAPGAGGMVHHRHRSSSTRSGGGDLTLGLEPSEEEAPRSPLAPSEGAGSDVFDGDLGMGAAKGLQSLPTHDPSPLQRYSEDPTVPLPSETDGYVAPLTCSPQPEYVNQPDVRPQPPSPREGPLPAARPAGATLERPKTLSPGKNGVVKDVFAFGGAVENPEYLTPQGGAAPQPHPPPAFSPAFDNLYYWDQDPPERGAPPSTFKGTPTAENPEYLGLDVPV
Method in brief: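 GST/HIS6-tagged HER-2 aa 679–1255 kinase with biotinylated polyGluTyr (1.5 ng/μL), 1 μM ATP plus γ-33P-ATP, Mg2+/Mn2+, DTT, Hepes pH 7.5; 1 h at 30 °C. Substrate phosphorylation captured on streptavidin scintillation plates after EDTA/PBS washes; values are % inhibition at 1 μM or IC50.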

Row | SMILES | inhibition at 2 µM (EGFR) [%] | inhibition at 2 µM (c-Src kinase (human)) [%] | IC50 (HER-2) [µM] | IC50 (EGFR) [µM] | inhibition at 1 µM (HER-2) [%]
1 | COc1cc(N2C(=O)Nc3c(C(=O)N(C)C)sc4ncnc2c34)ccc1Br [Cpd 83, 5-(4-bromo-3-methoxy-phenyl)-4-oxo-4,5-dihydro-3H-1-thia-3,5,6,8-tetraaza-acenaphthylene-2-carboxylic acid dimethylamide] | -2 | 44 | > 10 | – | –
2 | O=C(Nc1ccc(NCCCN2CCOCC2)nc1)c1sc2ncnc3c2c1NC(=O)N3c1ccc(Br)cc1F [Cpd 71, 5-(4-bromo-2-fluoro-phenyl)-4-oxo-4,5-dihydro-3H-1-thia-3,5,6,8-tetraaza-acenaphthylene-2-carboxylic acid [6-(3-morpholin-4-yl-propylamino)-pyridin-3-yl]-amide] | – | 44 | 1.76 | 0.85 | –
3 | COc1ccc(Cl)c(N2C(=O)Nc3c(C(=O)Nc4ccc(OCCN5CCCCC5)c(OC)c4)sc4ncnc2c34)c1 [Cpd 88, 5-(2-chloro-5-methoxy-phenyl)-4-oxo-4,5-dihydro-3H-1-thia-3,5,6,8-tetraaza-acenaphthylene-2-carboxylic acid [3-methoxy-4-(2-piperidin-1-yl-ethoxy)-phenyl]-amide] | – | 43 | – | – | –
4 | COc1cc(N2C(=O)Nc3c(C(=O)Nc4ccc(OC)c(OC)c4)sc4ncnc2c34)ccc1Br [Cpd 82, 5-(4-bromo-3-methoxy-phenyl)-4-oxo-4,5-dihydro-3H-1-thia-3,5,6,8-tetraaza-acenaphthylene-2-carboxylic acid (3,4-dimethoxy-phenyl)-amide] | 30 | 43 | > 10 | – | –
5 | CN1CCN(Cc2ccc(NC(=O)c3sc4ncnc5c4c3NC(=O)N5c3ccc(Br)cc3F)cc2)CC1 [Cpd 70, 5-(4-bromo-2-fluoro-phenyl)-4-oxo-4,5-dihydro-3H-1-thia-3,5,6,8-tetraaza-acenaphthylene-2-carboxylic acid [4-(4-methyl-piperazin-1-ylmethyl)-phenyl]-amide] | – | 43 | 1.02 | 0.33 | –
6 | CC(C)(C)OC(=O)NC1CCN(Cc2ccc(NC(=O)c3sc4ncnc5c4c3NC(=O)N5c3ccc(Oc4ccccc4)cc3)cc2)CC1 [Cpd 258, [1-(4-{[4-oxo-5-(4-phenoxy-phenyl)-4,5-dihydro-3H-1-thia-3,5,6,8-tetraaza-acenaphthylene-2-carbonyl]-amino}-benzyl)-piperidin-4-yl]-carbamic acid tert-butyl ester] | – | – | 0.058 | 0.053 | –
7 | O=C(Nc1ccc(CN2CCOCC2)cc1)c1sc2ncnc3c2c1NC(=O)N3c1ccc(Oc2cccnc2)cc1 [Cpd 237, 4-oxo-5-[4-(pyridin-3-yloxy)-phenyl]-4,5-dihydro-3H-1-thia-3,5,6,8-tetraaza-acenaphthylene-2-carboxylic acid (4-morpholin-4-ylmethyl-phenyl)-amide] | – | – | 0.454 | 0.09 | –
8 | CN1CCN(C(=O)c2sc3ncnc4c3c2NC(=O)N4c2ccc(Oc3ccccc3)cc2)CC1 [Cpd 216, 2-(4-methyl-piperazine-1-carbonyl)-5-(4-phenoxy-phenyl)-3H,5H-1-thia-3,5,6,8-tetraaza-acenaphthylen-4-one] | – | – | ~100 | 0.78 | –
9 | COc1cc(N2C(=O)Nc3c(C(=O)Nc4ccc(CN5CCN(C)CC5)cc4)sc4ncnc2c34)ccc1Br [Cpd 85, 5-(4-bromo-3-methoxy-phenyl)-4-oxo-4,5-dihydro-3H-1-thia-3,5,6,8-tetraaza-acenaphthylene-2-carboxylic acid [4-(4-methyl-piperazin-1-ylmethyl)-phenyl]-amide] | 36 | -17 | 4.38 | – | –
10 | COc1ccc(N2C(=O)Nc3c(C(=O)Nc4ccc(CN5CCCCC5)cc4)sc4ncnc2c34)cc1Br [Cpd 182, 5-(3-bromo-4-methoxy-phenyl)-4-oxo-4,5-dihydro-3H-1-thia-3,5,6,8-tetraaza-acenaphthylene-2-carboxylic acid (4-piperidin-1-ylmethyl-phenyl)-amide] | – | – | 1.68 | 0.88 | –
11 | CN(C)CCCNC(=O)c1sc2ncnc3c2c1NC(=O)N3c1ccc(Sc2ccccc2)cc1 [Cpd 212, 4-oxo-5-(4-phenylsulfanyl-phenyl)-4,5-dihydro-3H-1-thia-3,5,6,8-tetraaza-acenaphthylene-2-carboxylic acid (3-dimethylamino-propyl)-amide] | – | – | 0.168 | 0.036 | –
12 | CN1CCCN(C(=O)c2sc3ncnc4c3c2NC(=O)N4c2ccc(Oc3ccccc3)cc2)CC1 [Cpd 214, 2-(4-methyl-[1,4]diazepane-1-carbonyl)-5-(4-phenoxy-phenyl)-3H,5H-1-thia-3,5,6,8-tetraaza-acenaphthylen-4-one] | – | – | > 10 | 1.3 | –
13 | COc1ccc(NC(=O)c2sc3ncnc4c3c2NC(=O)N4c2cc(Cl)ccc2OC)cc1OC [Cpd 73, 5-(5-chloro-2-methoxy-phenyl)-4-oxo-4,5-dihydro-3H-1-thia-3,5,6,8-tetraaza-acenaphthylene-2-carboxylic acid (3,4-dimethoxy-phenyl)-amide] | 51 | -17 | – | – | -14
14 | COc1ccc(Cl)cc1N1C(=O)Nc2c(C(=O)Nc3ccc(CN4CCCCC4)cc3)sc3ncnc1c23 [Cpd 72, 5-(5-chloro-2-methoxy-phenyl)-4-oxo-4,5-dihydro-3H-1-thia-3,5,6,8-tetraaza-acenaphthylene-2-carboxylic acid (4-piperidin-1-ylmethyl-phenyl)-amide] | 57 | – | – | – | 4
15 | O=C(Nc1ccc(CN2CCCCC2)cc1)c1sc2ncnc3c2c1NC(=O)N3c1ccc(OCc2ccco2)c(Cl)c1 [Cpd 244, 5-[3-chloro-4-(furan-2-ylmethoxy)-phenyl]-4-oxo-4,5-dihydro-3H-1-thia-3,5,6,8-tetraaza-acenaphthylene-2-carboxylic acid (4-piperidin-1-ylmethyl-phenyl)-amide] | – | – | 0.085 | 0.023 | –
16 | O=C(Nc1ccc(CN2CCOCC2)cc1)c1sc2ncnc3c2c1NC(=O)N3c1ccc(Cl)cc1Cl [Cpd 29, 5-(2,4-dichloro-phenyl)-4-oxo-4,5-dihydro-3H-1-thia-3,5,6,8-tetraaza-acenaphthylene-2-carboxylic acid (4-morpholin-4-ylmethyl-phenyl)-amide] | – | – | 0.884 | 0.873 | –
17 | CN1CCC(NC(=O)c2sc3ncnc4c3c2NC(=O)N4c2ccc(OCc3cccs3)c(Cl)c2)CC1 [Cpd 230, 5-[3-chloro-4-(thiophen-2-ylmethoxy)-phenyl]-4-oxo-4,5-dihydro-3H-1-thia-3,5,6,8-tetraaza-acenaphthylene-2-carboxylic acid (1-methyl-piperidin-4-yl)-amide] | – | – | 0.367 | 0.109 | –
18 | COc1cc(N2C(=O)Nc3c(C(=O)Nc4ccc(CN5CCCCC5)cc4)sc4ncnc2c34)ccc1Br [Cpd 81, 5-(4-bromo-3-methoxy-phenyl)-4-oxo-4,5-dihydro-3H-1-thia-3,5,6,8-tetraaza-acenaphthylene-2-carboxylic acid (4-piperidin-1-ylmethyl-phenyl)-amide] | – | – | 0.695 | 0.498 | –
19 | COc1cc(NC(=O)c2sc3ncnc4c3c2NC(=O)N4c2ccc(Sc3ccccc3)cc2)ccc1CN1CCCCC1 [Cpd 224, 4-oxo-5-(4-phenylsulfanyl-phenyl)-4,5-dihydro-3H-1-thia-3,5,6,8-tetraaza-acenaphthylene-2-carboxylic acid (3-methoxy-4-piperidin-1-ylmethyl-phenyl)-amide] | – | – | 0.027 | 0.014 | –
20 | O=C(Nc1ccc(CN2CCCCC2)cc1)c1sc2ncnc3c2c1NC(=O)N3c1ccc(Oc2ccccc2)c(Br)c1 [Cpd 188, 5-(3-bromo-4-phenoxy-phenyl)-4-oxo-4,5-dihydro-3H-1-thia-3,5,6,8-tetraaza-acenaphthylene-2-carboxylic acid (4-piperidin-1-ylmethyl-phenyl)-amide] | – | – | 0.083 | 0.049 | –
